One assay concerns algae. Description: Dosing of micro-mixed emulsion to cooling tower water, control of algae. Conditions: isothiazolone 3 ppm in cooling water of a cooling tower; surfactant-free emulsion from micro-mixer. The method, then:
A 50 wt. % solution of 4,5-dichloro-2-octyl-3-isothiazolone in benzyl alcohol is fed to an array of slit shaped interdigital micro-mixers at a feed rate of 50 mL/minute, combined with water fed to the micro-mixer at a feed rate of 600 mL/minute. The water contains no surfactants. The resulting emulsion exiting the micro-mixer it is directly dosed to cooling water in a 50,000 gallon […] cooling tower, where is effectively distributed and re-circulated throughout the cooling water. After about 20 minutes, the isothiazolone concentration in the cooling water reaches a desired concentration of 3 ppm and the emulsion feed is stopped. […] Focusing micro-mixers also produce similar results as compared to the micro-mixers described above. Melted 2-octyl-3-isothiazolone as a neat liquid is fed to an array of slit shaped interdigital micro-mixers at a feed rate of 50 mL/minute, combined with water fed to the micro-mixer at a feed rate of 600 mL/minute. The water contains no surfactants and solvents. The resulting emulsion exiting the micro-mixer it is directly dosed to cooling water in a 50,000 gallon […] cooling tower, where is effectively distributed and re-circulated throughout the cooling water. After about 20 minutes, the isothiazolone concentration in the cooling water reaches a desired concentration of 3 ppm and the emulsion feed is stopped. […]

Another assay relates to mold. The assay can be described thus: Dosing of micro-mixed emulsion to paper pulp slurry tank, mold proofing of paper. Conditions: 50 wt. % solution in benzyl alcohol micro-mixed with water, charged to 10,000 liter pulp slurry tank. The method, then:
A 10,000 liter pulp slurry tank has a continuous throughput averaging 6,600 liters/minute. A 50 wt. % solution of 4,5-dichloro-2-octyl-3-isothiazolone in benzyl alcohol is fed to an array of slit shaped interdigital micro-mixers at a feed rate of 56 mL/minute, combined with water fed to the micro-mixer at a feed rate of 600 mL/minute. The water contains no surfactants. The resulting emulsion exiting the micro-mixer is directly charged to water in the pulp slurry tank, where it is effectively distributed and re-circulated throughout the tank water. […] Focusing micro-mixers also produce similar results as compared to the micro-mixers described above.

Consider two molecules from patent publication US20050042238A1, “Process for treating aqueous systems” (priority 2003, published 2005).

SMILES strings stand for the structures.

For `CCCCCCCCn1sccc1=O` [2-octyl-3-isothiazolone], in the assay with algae, the “control of algae in cooling water” value is listed as “Effective control of algae”.

On to `CCCCCCCCn1sc(Cl)c(Cl)c1=O` [4,5-dichloro-2-octyl-3-isothiazolone], for which, in the assay on mold, the “mold proofing in paper prepared from treated pulp” value is recorded as “effective mold proofing”. Besides, the “control of algae in cooling water” value in the assay on algae is “Effective control of algae”.
